Reference: patent publication US20220235034A1, “SELECTIVE HISTAMINE H3 RECEPTOR ANTAGONISTS FOR TREATING AUTISM SPECTRUM DISORDER” (RICHTER GEDEON NYRT., priority 2019, published 2022)
“Also recorded” adds a separate entry of the source.

What was measured:
[1] = tested on: prenatally valproate-exposed rat pups; assay: maternal deprivation-induced ultrasonic vocalization in prenatally valproate-exposed rat pups; format: in vivo; conditions: 0.01-1 mg/kg oral, co-administered with oral risperidone 0.003 mg/kg; prenatal valproate 300 mg/kg
Protocol: Maternal deprivation-induced ultrasonic vocalization in rat pups is a readout of socio-communicational function that is impaired in offspring after prenatal exposure to VPA (Gandal et al., Biol. Psychiatry 2010, 68, 1100-1106). To induce ultrasonic calls, prenatally VPA treated rat pups are placed individually into a cage where calls are being recorded with bat microphones. Calls are digitized with an audio filter and ultrasonic vocalization is recorded and quantified with SonoTrack software (Metris bv. The Netherlands). Baseline vocalization is measured on postnatal days 11-12 days for 10 min. Animals are divided into homogenous groups based on baseline vocalizations. On postnatal day 13, animals are treated p.o. with the appropriate doses of drug or vehicle 60 min before measurement and then returned to their nests until recording. Ultrasonic call counts are recorded for 10 min. Statistical analysis is performed on ultrasonic call counts with the non-parametric Kruskal-Wallis test and the post hoc Dunnett test.
The behavioral effect of the co-administration of 1-[4-(4-{3-[(2R)-2-methyl-pyrrolidin-1-yl]-propoxy)-phenoxy)-piperidin-1-yl]-ethan-1-one dicitrate and risperidone was studied in prenatally valproate-exposed (300 mg/kg) rat pups on ultrasound emissions induced by separation from their mothers. […]

[2] = tested on: prenatally valproate-treated rats; assay: social play assay in prenatally valproate-treated rats; format: in vivo, rat; conditions: postnatal day 30
Protocol: (§1) In this method, time-mated female Wistar rats are administered a single dose of VPA (600 mg/kg, i.p.) on gestational day 12.5. Offspring are housed according to standard laboratory conditions until time of behavioral testing. Animals are housed in groups of 4 in conventional cages and maintained at 22-24° C. on a standard 12 hours light/dark cycle, with food and water available ad libitum. After investigational drug treatment, offspring are examined behaviorally in tests relevant for the assessment of autistic behavior. These tests include social play, social preference and social recognition memory. These tests are suitable to assess behavioral elements that represent core ASD symptoms in experimental animals. Efficaciousness of an investigational compound (ie. improvement of behavioral deficits induced by prenatal VPA exposure) may indicate usefulness in the pharmacotherapy of core symptoms of ASD. Doses of the investigational drug were corrected for the dicitrate salt with a correction factor of 2.07 and are expressed as free base. Reference is herein made to a parallel patent application filed by the applicant with the title of “Selective histamine H3 receptor antagonist acid addition salts and process for the preparation thereof” wherein the salts, including dicitrate salt is disclosed in detail.
Social play is a type of social interaction that is highly typical of adolescent mammals including rodents as well as humans (Vanderschuren and Trezza, Curr. Topics Behav. Neurosci. 2014, 16:189-212). Social play behavior is indicative of healthy social functioning in adult life and is defective after prenatal VPA treatment in the offspring (Schneider and Przewlocki Neuropsychopharmacology 2005, 30:80-89). At postnatal day 30, following 8 days treatment with the test compound, prenatally VPA-treated rats are evaluated for juvenile play behavior. The test is carried out in a test arena unknown to the rats with pairs of animals from the same treatment group over a 15 min trial. Animals are scored for duration of social play behavior. […]

[3] = tested on: prenatally valproate-treated rats; assay: social preference in the 3-chamber apparatus in prenatally valproate-treated rats; format: in vivo, rat; conditions: postnatal day 59
Protocol: as §1
The social preference and recognition memory assays in a 3-chamber apparatus are further indicators of intact social behavior in rats. The preference of a conspecific over an inanimate object as well as the ability to distinguish between familiar and novel conspecifics are necessary for normal social functioning and are defective in the prenatal VPA model in rats (Bambini-Junior et al., Brain Res. 2011, 1408:8-16). […] On postnatal day 59, prenatally VPA-treated rats are assessed for their social preference following 8 days of per os treatment with the test compound. On postnatal day 60, the same rats are assessed for their social recognition memory after 9 days of per os treatment with the test compound. […]

[4] = tested on: prenatally valproate-treated rats; assay: social recognition memory in the 3-chamber apparatus in prenatally valproate-treated rats; format: in vivo, rat; conditions: postnatal day 60
Protocol: In this method, time-mated female Wistar rats are administered a single dose of VPA (600 mg/kg, i.p.) on gestational day 12.5. Offspring are housed according to standard laboratory conditions until time of behavioral testing. Animals are housed in groups of 4 in conventional cages and maintained at 22-24° C. on a standard 12 hours light/dark cycle, with food and water available ad libitum. After investigational drug treatment, offspring are examined behaviorally in tests relevant for the assessment of autistic behavior. These tests include social play, social preference and social recognition memory. These tests are suitable to assess behavioral elements that represent core ASD symptoms in experimental animals. […] Doses of the investigational drug were corrected for the dicitrate salt with a correction factor of 2.07 and are expressed as free base. […]
The social preference and recognition memory assays in a 3-chamber apparatus are further indicators of intact social behavior in rats. […] On postnatal day 59, prenatally VPA-treated rats are assessed for their social preference following 8 days of per os treatment with the test compound. On postnatal day 60, the same rats are assessed for their social recognition memory after 9 days of per os treatment with the test compound. […]

[5] = tested on: prenatal valproate exposure model; conditions: dose of risperidone applied in the present study (0.003 mg/kg); cited from earlier work

| Compound | reversal of the socio-communicational defect (ultrasound emissions induced by separation from mothers) [1] | significance of effect on social play versus VPA+VEH ([2]; 0.1 mg/kg per os once daily for 8 days, dicitrate) | significance of effect on social play versus VPA+VEH ([2]; 1 mg/kg per os once daily for 8 days) | reversal of the social play deficit induced by prenatal valproate treatment (duration of social play behavior) ([2]; per os once daily for 8 days, doses 0.01, 0.1 and 1 mg/kg (as free base), dicitrate) | effect on social preference versus VPA+VEH ([3]; 0.1 mg/kg per os once daily for 8 days) | effect on social preference versus VPA+VEH ([3]; 1 mg/kg per os once daily for 8 days, dicitrate) | reversal of the social preference deficit induced by prenatal valproate treatment ([3]; per os once daily for 8 days, doses 0.01, 0.1 and 1 mg/kg) | effect on social recognition memory versus VPA+VEH familiar ([4]; 1 mg/kg per os once daily for 9 days, dicitrate) | reversal of the social recognition deficit induced by prenatal valproate treatment ([4]; per os once daily for 9 days, doses 0.01, 0.1 and 1 mg/kg) | efficacy signal in the prenatal valproate exposure model [5] |
| --- | --- | --- | --- | --- | --- | --- | --- | --- | --- | --- |
| CC(=O)N1CCC(Oc2ccc(OCCCN3CCC[C@H]3C)cc2)CC1 [1-[4-(4-{3-[(2R)-2-methylpyrrolidin-1-yl]-propoxy}-phenoxy)-piperidin-1-yl]-ethan-1-on dicitrate] | dose-proportionally reversed the socio-communicational defect | statistically significant; also recorded: reaching significance | statistically significant | reversed the social play deficit; also recorded: partially reversed social play deficits | statistically significant | statistically significant; also recorded: fully reversed social preference deficits | reversed the social preference deficit | statistically significant; also recorded: fully reversed social recognition memory deficits | reversed the social recognition deficit |  |
| Cc1nc2n(c(=O)c1CCN1CCC(c3noc4cc(F)ccc34)CC1)CCCC2 [risperidone] |  |  |  |  |  |  |  |  |  | produce an efficacy signal |
